From patent EP0885006B1, “PHARMACEUTICAL COMPOSITION ENABLING TO INHIBIT CANCER METASTASIS FORMATION CONTAINING N-ACETYL-CYSTEINE AND DOXORUBICIN” (ZAMBON GROUP S.p.A., priority 1996, dated 1997)

System: B16-F10 murine melanoma cells
Test: Experimental metastasis assay (lung metastases after i.v. injection of cancer cells)
Type: in vivo, female nude (CD-1)BR mice
Conditions: for reduction in the number of lung metastases with respect to untreated controls: DOX 5 mg/kg i.p. +24 h, NAC 2 g/kg p.o. daily
Description: DOX was used in the form of commercial injectable product, containing 10 mg of drug per vial (Adriblastina®, Farmitalia - Carlo Erba, Milano, Italia), to be dissolved in distilled water when injected. In the experiments wherein the oral administration was provided, NAC was used in the form of commercial product containing 200 mg of NAC per dosage (Fluimucil®, Zambon Italia, Vicenza), directly dissolved in the drinking water of mice. In the experiments wherein the parenteral (i.p. or i.v.) administration of NAC was foreseen, a 98% pure laboratory reagent (Sigma Chemical Co., St. Louis, MO, U.S.A.) was used, dissolved in a phosphate buffer (PBS), pH 7.4, and furtherly brought to neutrality with NaOH 0.1 N ("spontaneous" metastasis assays) or in NaCl 0.15 M, taking the solution to pH 7.0 (experimental metastasis assays).
A total of 385 adult mice was used (Charles River, Calco, Como, Italia) of which 196 female nude (CD-1)BR mice, aged 7 weeks, average weight of 25 g and 189 female C57BL/6 mice aged 6-8 weeks, average weight of 20 g, used in the experimental metastasis assays and in those of "spontaneous" metastases respectively. The (CD-1)BR mice were housed in sterile cages with filtering cover, in a number of 3 animals per cage, at a room temperature of 26-28°C, with a relative humidity of 55%, a ventilation accounting for 12-15 air/h renewals and a 12 hours day/night cycle; the C57BL/6 mice were stabulated in a number of 5 animals per cage, at a temperature of 25-27°C, with a relative humidity of 50% and a 12 hours day/night cycle. The (CD-1)BR mice received a special diet sterilized under vacuum (Mucedola S.r.L, Settimo Milanese, Milano, Italia) and sterilized drinking water; the C57BL/6 mice received a standard rodent diet (MIL Topi e Ratti, Morini, S. Polo d'Enza, Reggio Emilia, Italia) and drinking water ad libitum throughout the duration of the experiments. Within the experiments wherein the sacrifice of mice was foreseen at a scheduled time, killing was carried out by means of ethyl ether anaesthesia and subsequent cervical dislocation. The stabulation and all the animal treatments were carried out in accordance with the national and Community guidelines (D.L. 27.01.1992 N. 116; 86/609/EEC Directive).
In this kind of assay cancer cells were injected in the lateral tail vein, in order to avoid the formation of primary tumors and directly provide the spread of metastases in the lungs. B16-F10 murine melanoma cells were used, resuspended in serum-free Eagle's MEM medium, and injected i.v. in a volume of 100 µl (5 x 10^4 cells/mouse). As reported in Table 1, wherein also the number of mice included in each experimental group is indicated, 4 groups were always involved in each experiment, namely a control group (either untreated mice or treated with NaCl 0.15M), a group of mice treated with DOX only, a group of mice treated with NAC only and a group of mice treated with the two combined drugs.
In particular, in experiment #1 DOX was injected in a single dose (5 mg/kg body weight) by i.p. route 24 hours after injection of cancer cells, whereas NAC was administered every day with drinking water, at a calculated dose of 2 g/kg body weight, starting 3 days before injection of cancer cells and continuing throughout the duration of the experiment.
In experiment #2 DOX was injected in a single dose (10 mg/kg body weight) by i.v. route 3 days after injection of cancer cells, whereas NAC was administered daily by i.p. route (1 g/kg body weight), starting 8 hours before injection of cancer cells and continuing for 8 days.
In experiment #3 both DOX and NAC were injected by i.v. route 24 hours after injection of cancer cells, […]; in the combined treatment therefore the two drugs were injected after being mixed into the same syringe.
In experiment #4, wherein the control and DOX groups were the same as experiment #3, NAC was injected by i.v. route together with cancer cells, dissolved in the culture medium at a concentration of 10 mM. […]

[1] = experiment #1, DOX 5 mg/kg i.p. +24h, NAC 2 g/kg p.o. -3/+25 days, DOX+NAC same doses, killed at 25 days
[2] = experiment #1, combined same doses
[3] = experiment #2, DOX 10 mg/kg i.v. +3 days, NAC 1 g/kg i.p. -8 h/+8 days, DOX+NAC same doses, killed at 29 days
[4] = experiment #2, DOX 10 mg/kg i.v. +3 days, NAC 1 g/kg i.p. daily -8 h/+8 days, combined same doses
[5] = experiment #3, DOX 1 mg/kg i.v. +24 h, NAC 6.4 mg/kg i.v. +24 h, combined in the same injection
[6] = experiment #3, DOX 1 mg/kg i.v. +24 h, NAC 6,4 mg/kg i.v. +24 h, DOX+NAC mixed in the same syringe, killed at 27 days
[7] = experiment #4, DOX 1 mg/kg i.v. +24 h, NAC 10 mM in cancer cells culture medium, combined same doses
[8] = experiment #4, DOX 1 mg/kg i.v. +24 h, NAC 10 mM in culture medium of the injected cancer cells, DOX+NAC same doses, killed at 27 days
[9] = experiment #2, NAC 1 g/kg i.p. daily -8 h/+8 days

Compound	Lung metastases No. (mean ± ES) [1] [No.]	Mice with metastases (No.) 0 [1] [No.]	Mice with metastases (No.) 1-10 [1] [No.]	Mice with metastases (No.) 11-50 [1] [No.]	Mice with metastases (No.) ≥51 [1] [No.]	reduction in the number of lung metastases with respect to untreated controls [2] [fold]	Lung metastases No. (mean ± ES) [3] [No.]	Mice with metastases (No.) 0 [3] [No.]	Mice with metastases (No.) 1-10 [3] [No.]	Mice with metastases (No.) 11-50 [3] [No.]	Mice with metastases (No.) ≥51 [3] [No.]	reduction in the number of lung metastases with respect to controls [4] [fold]	reduction in the number of lung metastases with respect to controls [5] [fold]	Lung metastases No. (mean ± ES) [6] [No.]	Mice with metastases (No.) 0 [6] [No.]	Mice with metastases (No.) 1-10 [6] [No.]	Mice with metastases (No.) 11-50 [6] [No.]	Mice with metastases (No.) ≥51 [6] [No.]	reduction in the number of lung metastases with respect to controls [7] [fold]	Lung metastases No. (mean ± ES) [8] [No.]	further results
COc1cccc2c1C(=O)c1c(O)c3c(c(O)c1C2=O)C[C@@](O)(C(=O)CO)C[C@@H]3O[C@H]1C[C@H](N)[C@H](O)[C@H](C)O1 [DOX, Doxorubicin]	13.1 ± 11.6	2	4	5	0	4.1	0.7 ± 0.3	10	5	0	0	17.4	1.3	29.2 ± 13.7	3	5	0	3	1.3	29.2 ± 13.7	frequency of mice affected by metastases (experiment #2, DOX 10 mg/kg i.v. +3 days, NAC 1 g/kg i.p. daily, controls 66.7%): 33.3%; Mice with metastases (No.) 0 [8]: 3 No.; Mice with metastases (No.) 1-10 [8]: 5 No.; Mice with metastases (No.) 11-50 [8]: 0 No.; Mice with metastases (No.) ≥51 [8]: 3 No.; modulating the induction of lung metastases (effect in words) (experiments #3 and #4, DOX 1 mg/kg i.v. +24 h): almost ineffective at all
CC(=O)N[C@@H](CS)C(=O)O [NAC, N-acetyl-cysteine]	42.1 ± 15.8	0	3	7	2	1.3	25.1 ± 10.2	5	4	3	3	0.5	2.8	13.1 ± 8.9	5	2	3	1	14.7	2.5 ± 0.7	frequency of animals with metastases (effect in words) [9]: did not affect; multiplicity of lung metastases (effect in words) [9]: even increased their multiplicity, but not to a significant extent; Mice with metastases (No.) 0 [8]: 4 No.; Mice with metastases (No.) 1-10 [8]: 7 No.; Mice with metastases (No.) 11-50 [8]: 0 No.; Mice with metastases (No.) ≥51 [8]: 0 No.
